Results taken from ChEMBL document CHEMBL1135773, “Purine and pyrimidine (P2) receptors as drug targets” (J Med Chem, 2002).

Tests used:
[1] = molecular target: T1, P2X purinoceptor 1 (Rattus norvegicus, UniProt P47824); test: The compound was evaluated for antagonist activity against P2X purinoceptor 1 (P2X1) like receptor from rat vas deferens; type: functional
T1 sequence (P47824 whole entry): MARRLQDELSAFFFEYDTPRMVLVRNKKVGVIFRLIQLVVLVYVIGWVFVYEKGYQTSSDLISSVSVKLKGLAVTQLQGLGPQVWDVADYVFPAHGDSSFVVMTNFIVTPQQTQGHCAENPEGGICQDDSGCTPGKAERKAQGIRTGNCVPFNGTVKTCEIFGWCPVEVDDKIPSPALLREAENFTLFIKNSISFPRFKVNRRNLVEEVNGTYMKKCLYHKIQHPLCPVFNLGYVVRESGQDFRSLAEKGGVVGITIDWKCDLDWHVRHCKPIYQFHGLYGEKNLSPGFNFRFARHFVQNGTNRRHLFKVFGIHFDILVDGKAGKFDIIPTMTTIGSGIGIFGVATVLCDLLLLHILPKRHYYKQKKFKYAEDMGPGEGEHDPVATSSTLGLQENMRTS

[2] = molecular target: P2Y purinoceptor 2 (Homo sapiens, UniProt P41231); test: Evaluated for agonist activity against phospholipase C coupled recombinant human P2Y purinoceptor 2 (P2Y2); type: functional
P2Y purinoceptor 2, sequence (P41231 whole entry): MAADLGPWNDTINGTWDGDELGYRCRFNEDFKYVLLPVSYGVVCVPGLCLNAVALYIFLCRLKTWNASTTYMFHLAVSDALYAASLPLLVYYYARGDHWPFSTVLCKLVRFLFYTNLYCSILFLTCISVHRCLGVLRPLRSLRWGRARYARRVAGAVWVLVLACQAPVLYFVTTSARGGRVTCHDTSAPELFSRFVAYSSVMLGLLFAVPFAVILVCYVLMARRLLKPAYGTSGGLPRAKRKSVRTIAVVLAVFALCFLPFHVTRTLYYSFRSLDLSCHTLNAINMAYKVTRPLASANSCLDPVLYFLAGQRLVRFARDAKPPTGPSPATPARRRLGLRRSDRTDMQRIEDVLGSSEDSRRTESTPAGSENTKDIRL

[3] = molecular target: T2, P2Y purinoceptor 11 (Homo sapiens, UniProt Q96G91); test: Agonist activity against phospholipase C coupled human P2Y purinoceptor 11 (P2Y11); type: functional
T2 sequence (Q96G91 whole entry): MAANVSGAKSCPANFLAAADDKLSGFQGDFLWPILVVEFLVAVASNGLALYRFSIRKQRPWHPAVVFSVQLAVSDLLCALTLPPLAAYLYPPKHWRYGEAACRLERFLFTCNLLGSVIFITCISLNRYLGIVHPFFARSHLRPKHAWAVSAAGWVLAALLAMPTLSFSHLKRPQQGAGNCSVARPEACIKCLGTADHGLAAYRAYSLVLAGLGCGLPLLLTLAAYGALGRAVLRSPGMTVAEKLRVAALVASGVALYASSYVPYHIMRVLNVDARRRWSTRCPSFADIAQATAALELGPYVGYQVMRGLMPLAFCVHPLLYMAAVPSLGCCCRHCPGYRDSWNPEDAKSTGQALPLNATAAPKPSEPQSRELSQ

[4] = molecular target: P2Y purinoceptor 12 (Rattus norvegicus, UniProt Q9EPX4); test: Antagonist activity against phospholipase C coupled rat P2Y purinoceptor 12 (P2Y12); type: functional
P2Y purinoceptor 12, sequence (Q9EPX4 whole entry): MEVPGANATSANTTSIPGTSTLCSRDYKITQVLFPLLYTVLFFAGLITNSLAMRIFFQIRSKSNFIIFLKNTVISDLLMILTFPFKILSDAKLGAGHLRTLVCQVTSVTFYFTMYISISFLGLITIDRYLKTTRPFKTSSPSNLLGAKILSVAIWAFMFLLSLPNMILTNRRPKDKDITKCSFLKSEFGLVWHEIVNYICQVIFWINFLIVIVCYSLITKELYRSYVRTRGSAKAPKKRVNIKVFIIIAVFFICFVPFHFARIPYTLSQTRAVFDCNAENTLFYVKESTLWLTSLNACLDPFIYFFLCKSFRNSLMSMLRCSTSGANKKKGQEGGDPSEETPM

[5] = molecular target: P2Y purinoceptor 4 (Homo sapiens, UniProt P51582); test: The compound was evaluated for antagonist activity against phospholipase C coupled recombinant human P2Y purinoceptor 4 (P2Y4); type: functional
P2Y purinoceptor 4, sequence (P51582 whole entry): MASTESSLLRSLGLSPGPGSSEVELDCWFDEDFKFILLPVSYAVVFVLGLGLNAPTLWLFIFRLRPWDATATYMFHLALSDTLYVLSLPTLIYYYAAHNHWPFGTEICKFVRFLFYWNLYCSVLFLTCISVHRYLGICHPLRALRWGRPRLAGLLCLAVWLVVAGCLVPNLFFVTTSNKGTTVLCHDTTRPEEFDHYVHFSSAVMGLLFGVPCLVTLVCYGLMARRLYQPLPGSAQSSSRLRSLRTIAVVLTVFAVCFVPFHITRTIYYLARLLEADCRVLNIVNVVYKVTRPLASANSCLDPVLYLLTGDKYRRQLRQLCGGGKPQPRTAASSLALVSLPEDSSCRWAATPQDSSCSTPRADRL

[6] = molecular target: P2Y purinoceptor 6 (Homo sapiens, UniProt Q15077); test: The compound was evaluated for agonist activity against phospholipase C coupled recombinant human P2Y purinoceptor 6 (P2Y6); type: functional
P2Y purinoceptor 6, sequence (Q15077 whole entry): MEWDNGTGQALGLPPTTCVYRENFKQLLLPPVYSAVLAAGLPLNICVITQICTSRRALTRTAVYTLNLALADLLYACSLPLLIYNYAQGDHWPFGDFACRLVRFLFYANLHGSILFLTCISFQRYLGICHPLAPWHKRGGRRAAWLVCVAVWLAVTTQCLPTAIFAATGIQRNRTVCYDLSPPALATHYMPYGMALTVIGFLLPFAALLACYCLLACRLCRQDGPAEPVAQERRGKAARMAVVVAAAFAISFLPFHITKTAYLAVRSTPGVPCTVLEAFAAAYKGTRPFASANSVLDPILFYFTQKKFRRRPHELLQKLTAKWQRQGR

[7] = molecular target: P2Y purinoceptor 1 (Meleagris gallopavo, UniProt P49652); test: Evaluated for agonist activity against phospholipase C coupled P2Y purinoceptor 1 (P2Y1) of turkey erythrocytes; type: functional
P2Y purinoceptor 1 (Meleagris gallopavo, UniProt P49652), sequence (P49652 whole entry): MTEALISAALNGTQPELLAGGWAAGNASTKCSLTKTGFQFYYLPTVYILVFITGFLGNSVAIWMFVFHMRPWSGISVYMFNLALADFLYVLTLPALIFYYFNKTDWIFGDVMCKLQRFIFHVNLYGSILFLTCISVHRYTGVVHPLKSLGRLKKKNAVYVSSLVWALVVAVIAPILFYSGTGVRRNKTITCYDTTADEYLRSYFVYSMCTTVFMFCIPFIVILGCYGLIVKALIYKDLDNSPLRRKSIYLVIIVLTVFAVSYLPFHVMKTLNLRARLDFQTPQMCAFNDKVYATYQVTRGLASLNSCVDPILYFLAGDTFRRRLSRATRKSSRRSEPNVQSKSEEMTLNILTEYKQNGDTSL

[8] = molecular target: T3, P2X purinoceptor 1 (Homo sapiens, UniProt P51575); test: Antagonist activity against recombinant human P2X purinoceptor 1 (P2X1 ); type: functional
T3 sequence (P51575 whole entry): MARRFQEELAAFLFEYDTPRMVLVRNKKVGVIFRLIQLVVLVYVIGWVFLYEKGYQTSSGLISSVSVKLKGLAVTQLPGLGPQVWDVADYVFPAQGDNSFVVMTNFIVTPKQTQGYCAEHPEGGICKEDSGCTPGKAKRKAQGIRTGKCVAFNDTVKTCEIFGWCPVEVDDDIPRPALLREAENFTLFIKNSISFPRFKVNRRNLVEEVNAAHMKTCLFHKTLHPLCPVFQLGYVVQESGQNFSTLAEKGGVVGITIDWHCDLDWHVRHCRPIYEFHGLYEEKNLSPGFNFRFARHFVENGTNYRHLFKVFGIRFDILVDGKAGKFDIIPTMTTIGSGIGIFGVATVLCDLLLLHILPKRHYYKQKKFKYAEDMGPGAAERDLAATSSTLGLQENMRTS

[9] = molecular target: T4, P2X purinoceptor 4 (Homo sapiens, UniProt Q99571); test: Antagonist activity against recombinant human P2X purinoceptor 4 (P2X4); type: functional
T4 sequence (Q99571 whole entry): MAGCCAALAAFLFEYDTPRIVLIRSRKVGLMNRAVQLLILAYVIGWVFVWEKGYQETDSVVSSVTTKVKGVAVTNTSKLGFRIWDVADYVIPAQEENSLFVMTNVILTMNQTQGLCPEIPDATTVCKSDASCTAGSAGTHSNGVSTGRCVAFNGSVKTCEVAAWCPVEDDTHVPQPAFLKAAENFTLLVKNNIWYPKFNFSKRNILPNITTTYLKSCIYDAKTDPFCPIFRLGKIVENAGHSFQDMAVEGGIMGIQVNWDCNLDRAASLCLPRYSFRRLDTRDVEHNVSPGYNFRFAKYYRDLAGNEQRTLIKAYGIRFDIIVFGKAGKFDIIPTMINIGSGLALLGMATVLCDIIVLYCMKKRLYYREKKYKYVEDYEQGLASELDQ

[10] = molecular target: T5, P2X purinoceptor 2 (Rattus norvegicus, UniProt P49653); test: Antagonist activity against recombinant rat receptor P2X purinoceptor 2 (P2X2) at 10 uM, expressed in Xenopus oocytes; type: functional, cell-based, Oocyte
T5 sequence (P49653 whole entry): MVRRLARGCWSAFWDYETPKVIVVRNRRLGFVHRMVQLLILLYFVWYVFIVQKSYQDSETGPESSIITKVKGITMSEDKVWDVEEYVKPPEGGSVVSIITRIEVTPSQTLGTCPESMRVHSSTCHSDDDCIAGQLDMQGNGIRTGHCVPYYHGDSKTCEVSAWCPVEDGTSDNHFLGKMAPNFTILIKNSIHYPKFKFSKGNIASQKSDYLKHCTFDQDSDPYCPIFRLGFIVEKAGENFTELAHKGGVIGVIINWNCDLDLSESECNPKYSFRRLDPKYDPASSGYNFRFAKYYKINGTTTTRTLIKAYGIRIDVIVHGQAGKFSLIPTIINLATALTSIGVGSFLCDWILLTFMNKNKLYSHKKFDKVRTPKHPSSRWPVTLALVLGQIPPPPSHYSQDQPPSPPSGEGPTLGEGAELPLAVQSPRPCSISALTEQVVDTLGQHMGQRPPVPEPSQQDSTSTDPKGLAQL

[11] = molecular target: T6, P2X purinoceptor 3 (Homo sapiens, UniProt P56373); test: Antagonist activity against recombinant human P2X purinoceptor 3 (P2X3 ); type: functional
T6 sequence (P56373 whole entry): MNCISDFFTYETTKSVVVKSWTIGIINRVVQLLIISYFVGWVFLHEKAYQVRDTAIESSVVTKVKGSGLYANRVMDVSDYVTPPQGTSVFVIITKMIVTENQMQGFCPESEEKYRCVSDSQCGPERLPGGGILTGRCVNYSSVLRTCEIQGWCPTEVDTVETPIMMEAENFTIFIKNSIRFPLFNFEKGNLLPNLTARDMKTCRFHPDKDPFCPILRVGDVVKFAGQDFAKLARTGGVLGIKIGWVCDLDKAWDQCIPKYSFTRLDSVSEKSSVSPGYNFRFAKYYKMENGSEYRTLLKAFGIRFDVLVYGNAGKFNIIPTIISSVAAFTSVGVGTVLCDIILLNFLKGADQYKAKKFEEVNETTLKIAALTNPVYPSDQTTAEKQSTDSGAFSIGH

[12] = molecular target: T7, P2X purinoceptor 4 (Rattus norvegicus, UniProt P51577); test: Antagonist activity against recombinant rat P2X purinoceptor 4 (P2X4) at 30 uM, expressed in Xenopus oocytes; type: functional, cell-based, Oocyte
T7 sequence (P51577 whole entry): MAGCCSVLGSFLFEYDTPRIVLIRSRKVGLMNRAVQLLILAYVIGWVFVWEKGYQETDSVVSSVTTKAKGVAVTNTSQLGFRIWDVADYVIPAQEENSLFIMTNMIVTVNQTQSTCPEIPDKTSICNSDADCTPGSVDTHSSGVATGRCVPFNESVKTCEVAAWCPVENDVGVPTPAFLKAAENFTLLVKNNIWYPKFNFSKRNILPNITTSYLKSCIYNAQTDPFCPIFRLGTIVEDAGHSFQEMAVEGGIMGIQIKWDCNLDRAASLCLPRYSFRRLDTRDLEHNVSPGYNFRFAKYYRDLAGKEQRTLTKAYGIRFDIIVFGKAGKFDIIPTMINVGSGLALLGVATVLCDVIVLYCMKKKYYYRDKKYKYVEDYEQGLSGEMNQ

[13] = molecular target: T8, P2X purinoceptor 5 (Rattus norvegicus, UniProt P51578); test: Antagonist activity against recombinant rat P2X purinoceptor 5 (P2X5); type: functional
T8 sequence (P51578 whole entry): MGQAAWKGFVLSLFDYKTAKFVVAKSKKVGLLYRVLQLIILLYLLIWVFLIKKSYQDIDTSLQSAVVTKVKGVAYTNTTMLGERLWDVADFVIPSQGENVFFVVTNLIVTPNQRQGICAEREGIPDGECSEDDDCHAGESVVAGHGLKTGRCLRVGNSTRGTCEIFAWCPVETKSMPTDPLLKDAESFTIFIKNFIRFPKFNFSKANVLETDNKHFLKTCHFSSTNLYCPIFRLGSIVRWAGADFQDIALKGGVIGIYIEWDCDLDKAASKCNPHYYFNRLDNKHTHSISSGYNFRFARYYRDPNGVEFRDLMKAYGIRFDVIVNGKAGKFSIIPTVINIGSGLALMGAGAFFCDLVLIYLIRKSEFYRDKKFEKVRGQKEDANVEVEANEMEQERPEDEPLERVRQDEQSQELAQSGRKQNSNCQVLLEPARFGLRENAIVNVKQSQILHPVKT

[14] = molecular target: P2X purinoceptor 6 (Rattus norvegicus, UniProt P51579); test: Antagonist activity against recombinant rat P2X purinoceptor 6 (P2X6 ); type: functional
P2X purinoceptor 6, sequence (P51579 whole entry): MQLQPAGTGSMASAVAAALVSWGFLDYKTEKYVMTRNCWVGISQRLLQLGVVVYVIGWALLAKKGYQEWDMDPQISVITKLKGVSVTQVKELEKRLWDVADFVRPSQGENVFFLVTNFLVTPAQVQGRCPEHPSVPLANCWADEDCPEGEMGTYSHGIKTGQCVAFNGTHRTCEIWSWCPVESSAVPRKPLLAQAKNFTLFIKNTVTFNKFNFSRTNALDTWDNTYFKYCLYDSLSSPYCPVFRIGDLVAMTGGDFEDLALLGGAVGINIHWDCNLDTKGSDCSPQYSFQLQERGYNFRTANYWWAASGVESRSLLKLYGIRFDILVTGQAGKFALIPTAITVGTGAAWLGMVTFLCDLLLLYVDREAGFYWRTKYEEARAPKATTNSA

[15] = molecular target: T1, P2X purinoceptor 1; test: The compound was evaluated for antagonist activity against recombinant rat P2X purinoceptor 1 (P2X1); type: functional
[16] = molecular target: T7, P2X purinoceptor 4; test: Antagonist activity against recombinant rat P2X purinoceptor 4 (P2X4) at 3 uM, expressed in Xenopus oocytes; type: functional, cell-based, Oocyte
[17] = molecular target: T1, P2X purinoceptor 1; test: The compound was evaluated for antagonist activity against recombinant rat P2X purinoceptor 1 (P2X1) at 1 uM, expressed in Xenopus oocytes; type: functional, cell-based, Oocyte
[18] = molecular target: P2Y purinoceptor 1 (Homo sapiens, UniProt P47900); test: Evaluated for agonist activity against phospholipase C coupled P2Y purinoceptor 1 (P2Y1) of human erythrocytes; type: functional
P2Y purinoceptor 1 (Homo sapiens, UniProt P47900), sequence (P47900 whole entry): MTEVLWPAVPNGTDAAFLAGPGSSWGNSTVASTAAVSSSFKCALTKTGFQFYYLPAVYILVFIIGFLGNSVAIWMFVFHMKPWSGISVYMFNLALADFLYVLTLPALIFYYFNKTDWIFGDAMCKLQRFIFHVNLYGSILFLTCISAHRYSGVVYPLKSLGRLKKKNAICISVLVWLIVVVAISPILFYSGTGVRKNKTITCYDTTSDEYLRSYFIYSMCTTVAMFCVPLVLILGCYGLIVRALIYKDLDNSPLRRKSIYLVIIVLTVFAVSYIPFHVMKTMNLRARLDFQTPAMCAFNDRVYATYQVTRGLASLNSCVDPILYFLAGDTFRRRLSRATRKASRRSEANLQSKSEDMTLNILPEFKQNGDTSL

Cc1cc(C)c(Nc2cc(S(=O)(=O)O)c(N)c3c2C(=O)c2ccccc2C3=O)c(C)c1 [ACID BLUE 129]
Kd [1]: > 100 µM

Nc1c(S(=O)(=O)O)cc(Nc2ccc(Nc3nc(Cl)nc(Cl)n3)c(S(=O)(=O)O)c2)c2c1C(=O)c1ccccc1C2=O
IC50 [1]: 8.8 µM

CNc1nc(Cl)nc2c1ncn2[C@H]1C[C@@H](OP(=O)(O)O)[C@]2(COP(=O)(O)O)C[C@H]12
EC50 [2]: > 100 µM
EC50 [3]: > 100 µM
EC50 [4]: > 100000 nM
EC50 [5]: > 100 µM
EC50 [6]: > 100 µM
EC50 [7]: 52 nM

Nc1ncnc2c1ncn2[C@@H]1O[C@H](COP(=O)(O)OP(=O)(O)CP(=O)(O)O)[C@@H](O)[C@H]1O [PHOSPHOMETHYLPHOSPHONIC ACID ADENYLATE ESTER]
EC50 [4]: > 100000 nM
EC50 [7]: > 100000 nM
EC50 [8]: 2000 nM

Nc1ncnc2c1ncn2[C@@H]1O[C@H](COP(=O)(O)OP(=O)(O)S)[C@@H](O)[C@H]1O (some centres not stated)
EC50 [9]: 25 µM
EC50 [10]: 100000 nM
EC50 [11]: 8800 nM
EC50 [3]: 30 µM
EC50 [4]: 82 nM
EC50 [8]: 2500 nM

CSc1nc(N)c2ncn([C@@H]3O[C@H](COP(=O)(O)OP(=O)(O)OP(=O)(O)O)[C@@H](O)[C@H]3O)c2n1
EC50 [9]: 1 µM
EC50 [12]: 7.4 µM
EC50 [13]: 1000 nM
EC50 [14]: 600 nM
EC50 [10]: 1500 nM
EC50 [11]: 350 nM
EC50 [3]: 50 µM
EC50 [4]: 1.1 nM
EC50 [6]: 100 µM
EC50 [8]: 54 nM

Nc1ncnc2c1ncn2[C@H]1C[C@H](O)[C@@H](COP(=O)(O)OP(=O)(O)OP(=O)(O)O)O1
EC50 [3]: 9 µM

CSc1nc(N)c2ncn([C@@H]3O[C@H](COP(=O)(O)OP(=O)(O)O)[C@@H](O)[C@H]3O)c2n1
EC50 [2]: > 100 µM

Nc1ncnc2c1ncn2[C@H]1CC(OP(=O)(O)O)C2(COP(=O)(O)O)CC12 (some centres not stated)
EC50 [7]: 155 nM

O=c1[nH]cnc2c1ncn2[C@@H]1O[C@H](COP(=O)(O)OP(=O)(O)OP(=O)(O)OP(=O)(O)OP(=O)(O)OC[C@H]2O[C@@H](n3cnc4c(=O)[nH]cnc43)[C@H](O)[C@@H]2O)[C@@H](O)[C@H]1O
EC50 [15]: 1.5 nM

Nc1ccc(CCSc2nc(N)c3ncn([C@@H]4O[C@H](COP(=O)(O)OP(=O)(O)OP(=O)(O)O)[C@@H](O)[C@H]4O)c3n2)cc1
EC50 [16]: 15 µM
EC50 [7]: 1.5 nM
EC50 [17]: 98 nM

Nc1ncnc2c1ncn2[C@@H]1O[C@H](CO[P@](=O)(O)O[P@](=O)(O)O[P@@](=O)(O)S)[C@@H](O)[C@H]1O
EC50 [12]: 2.3 µM
EC50 [13]: 600 nM
EC50 [14]: 1300 nM
EC50 [10]: 1500 nM
EC50 [2]: 1.72 µM
EC50 [11]: 690 nM
EC50 [3]: 3 µM
EC50 [4]: 1300 nM
EC50 [7]: 1300 nM
EC50 [8]: 2300 nM

CCCCCCSc1nc(N)c2ncn([C@@H]3O[C@H](COP(=O)(O)O)[C@@H](O)[C@H]3O)c2n1
EC50 [16]: 20 µM
EC50 [7]: 4.8 nM
EC50 [17]: 840 nM

Cc1nc(/N=N/c2cc(S(=O)(=O)O)c3cc([N+](=O)[O-])cc(S(=O)(=O)O)c3c2)c(COP(=O)(O)O)c(C=O)c1O
EC50 [15]: 14 nM

Nc1ncnc2c1ncn2[C@@H]1CO[C@H](COP(=O)(O)O)[C@@H](OP(=O)(O)O)C1
EC50 [7]: 3 nM

O=c1ccn([C@@H]2O[C@H](COP(=O)(O)OP(=O)(O)O)[C@@H](O)[C@H]2O)c(=O)[nH]1 [URIDINE_DIPHOSPHATE]
EC50 [18]: > 100 µM
EC50 [2]: > 100 µM
EC50 [6]: 0.3 µM
